What follows are molecules tested on IL-6 (assay: AGE (G-HSA)-induced inflammatory response determined by IL-6 ELISA in HAEC). Conditions: Homo sapiens, 24 h, Compds tested @ 10 uM, IL6, read-out: % IL6 production compare to AGE stimulation of IL6 (100%).
Assay type: cell-based, human
Experimental: Human aortic endothelial cells (HAEC, Clonetics) were cultured according to manufacturer in growth medium (Clonetics): basal medium containing human epidermal growth factor, hydrocortisone, vascular endothelial growth factor, heparin binding growth factor-B, long R3-insulin-like growth factor-1, ascorbic acid, gentamicin/amphotericin and 5% FBS. These cell were allowed to reach at least 90% confluency before subjected to experimental treatments. […] Tumor necrosis factor α was from R&D Systems.
All treatments, compound-added and controls were carried out in serum free media containing 0.2% albumin. Media from all conditions were collected and used for IL-6 ELISA.
IL-6 ELISA was carried out using human IL-6 DuoSet ELISA development kit as described by manufacturer (R&D Systems). Mouse anti-human Il-6 was used as the capture antibody (2 ug/ml) and biotinylated goat anti-human IL-6 (200 ng/ml) was used as the detection antibody. Culture media were incubated with capture antibody (in 96 well) for 2 h at room temperature. Wells were washed three times with wash buffer (0.05% tween-20 in phosphate buffered saline (PBS) pH 7.4) followed by incubation with detection antibody for 2 h at room temperature. Following three washes wells were incubated with Streptavidin-HRP for 20 min. Color development was read at 450 nm in a Microplate reader.
Work on `CCN1CCCC1CNc1nc(Nc2ccc3ncccc3c2)nc(NC2CCCCCC2)n1` (stereo not drawn) [Compound 4, N^2-cycloheptyl-N^4-[(1-ethyl-2-pyrrolidinyl)methyl]-N^6-(6-quinolinyl)-1,3,5-triazine-2,4,6-triamine] yielded an activity at 10 µM of 1%.
Work on `CCN1CCCC1CNc1nc(Nc2ccc(F)cc2)nc(NC2CCCCCC2)n1` (stereo not drawn) [Compound 10, N^2-cycloheptyl-N^4-[(1-ethyl-2-pyrrolidinyl)methyl]-N^6-(4-fluorophenyl)-1,3,5-triazine-2,4,6-triamine] yielded an activity at 10 µM of 1%.
In the case of `CCN1CCCC1CNc1nc(Nc2ccc(C#N)cc2)nc(NC2CCCCCC2)n1` (stereo not drawn) [Compound 11, 4-[(4-(cycloheptylamino)-6-{[(1-ethyl-2-pyrrolidinyl)methyl]amino}-1,3,5-triazin-2-yl)-amino]benzonitrile], the activity at 10 µM is reported as 1%.
With `CCN1CCCC1CNc1nc(Nc2ccc3c(c2)OCCO3)nc(NC2CCCCCC2)n1` (stereo not drawn) [Compound 24, N^2-cycloheptyl-N^4-(2,3-dihydro-1,4-benzodioxin-6-yl)-N^6-[(1-ethyl-2-pyrrolidinyl)methyl]-1,3,5-triazine-2,4,6-triamine] the activity at 10 µM was 1%.
In the case of `CCN1CCCC1CNc1nc(Nc2ccc(N(C)C)cc2)nc(NC2CCCCCC2)n1` (stereo not drawn) [Compound 25, N^2-cycloheptyl-N^4-[4-(dimethylamino)phenyl]-N^6-[(1-ethyl-2-pyrrolidinyl)methyl]-1,3,5-triazine-2,4,6-triamine], the activity at 10 µM is reported as 1%.
With `CCOc1ccc(Nc2nc(NCC3CCCN3CC)nc(NC3CCCCCC3)n2)cc1` (stereo not drawn) [Compound 32, N^2-cycloheptyl-N^4-(4-ethoxyphenyl)-N^6-[(1-ethyl-2-pyrrolidinyl)methyl]-1,3,5-triazine-2,4,6-triamine] the activity at 10 µM was 1%.
`CCN1CCCC1CNc1nc(Nc2scc(C)c2C(N)=O)nc(NC2CCCCCC2)n1` (stereo not drawn) [Compound 39, 2-[(4-(cycloheptylamino)-6-{[(1-ethyl-2-pyrrolidinyl)methyl]amino}-1,3,5-triazin-2-yl)-amino]-4-methyl-3-thiophenecarboxamide] gave an activity at 10 µM of 28%.
`CCN1CCCC1CNc1nc(NC2CCCCCC2)nc(N(C)c2ccc(Cl)cc2)n1` (stereo not drawn) [Compound 40, N^2-(4-chlorophenyl)-N^4-cycloheptyl-N^6-[(1-ethyl-2-pyrrolidinyl)methyl]-N^2-methyl-1,3,5-triazine-2,4,6-triamine] gave an activity at 10 µM of 19%.
Molecule `CCN1CCCC1CNc1nc(NC2CCCCCC2)nc(N(CCC#N)c2ccccc2)n1` (stereo not drawn) [Compound 41, 3-[(4-(cycloheptylamino)-6-{[(1-ethyl-2-pyrrolidinyl)methyl]amino}-1,3,5-triazin-2-yl)-(phenyl)amino]propanenitrile] has an activity at 10 µM of 18%.
`CCN1CCCC1CNc1nc(NC2CCCCCC2)nc(N(C)c2ccc(F)cc2F)n1` (stereo not drawn) [Compound 43, N^2-cycloheptyl-N^4-(2,4-difluorophenyl)-N^6-[(1-ethyl-2-pyrrolidinyl)methyl]-N^4-methyl-1,3,5-triazine-2,4,6-triamine] gave an activity at 10 µM of 4%.
`CCN1CCCC1CNc1nc(NC2CCCCCC2)nc(N(CC#N)c2ccccc2)n1` (stereo not drawn) [Compound 44, [(4-(cycloheptylamino)-6-{[(1-ethyl-2-pyrrolidinyl)methyl]amino}-1,3,5-triazin-2-yl)(phenyl)amino]acetonitrile] gave an activity at 10 µM of 1%.
With `CCN1CCCC1CNc1nc(NC2CCCCCC2)nc(N(C)c2cccc(Cl)c2)n1` (stereo not drawn) [Compound 45, N^2-(3-chlorophenyl)-N^4-cycloheptyl-N^6-[(1-ethyl-2-pyrrolidinyl)methyl]-N^2-methyl-1,3,5-triazine-2,4,6-triamine] the activity at 10 µM was 1%.
In the case of `CCN1CCCC1CNc1nc(NC2CCCCCC2)nc(N(C)c2ccccc2C(F)(F)F)n1` (stereo not drawn) [Compound 46, N^2-cycloheptyl-N^4-[(1-ethyl-2-pyrrolidinyl)methyl]-N^6-methyl-N^6-[2-(trifluoromethyl)phenyl]-1,3,5-triazine-2,4,6-triamine], the activity at 10 µM is reported as 3%.

Same assay, conditions: Homo sapiens, IL6, unit inferred, read-out: IC50 (AGE stimulation of IL6)
Molecule `CCN1CCCC1CNc1nc(Nc2ccc(C#N)cc2)nc(NC2CCCCCC2)n1` (stereo not drawn) [Compound 11, 4-[(4-(cycloheptylamino)-6-{[(1-ethyl-2-pyrrolidinyl)methyl]amino}-1,3,5-triazin-2-yl)-amino]benzonitrile] has an IC50 of 8.87 µM.
Molecule `CCN1CCCC1CNc1nc(NC2CCCCCC2)nc(N(CC#N)c2ccccc2)n1` (stereo not drawn) [Compound 44, [(4-(cycloheptylamino)-6-{[(1-ethyl-2-pyrrolidinyl)methyl]amino}-1,3,5-triazin-2-yl)(phenyl)amino]acetonitrile] has an IC50 of 7.1 µM.

Source: patent publication US7169785B2, “Methods and compositions of novel triazine compounds” (Reddy US Therapeutics, Inc., priority 2001, dated 2007)
